Laboratory results as given in paper PMC9916762, “Impact of Hydrophobic Chains in Five-Coordinate Glucoconjugate Pt(II) Anticancer Agents” (International Journal of Molecular Sciences, 2023).

Legend:
[1] = system: murine fibroblast BALB/c-3T3 transformed with the SV40 virus (SVT2); assay: MTT cell viability assay, SVT2; assay type: cell-based
Source text: (§1) The immortalized human keratinocytes (HaCaT) were from Innoprot.

[2] = system: human epidermoid carcinoma cells (A431); assay: MTT cell viability assay, A431; assay type: cell-based
Source text: as §1

[3] = In-solution stability in DMSO (1H NMR, UV-vis); assay type: physicochemical; settings: 50 μM in DMSO, 25 °C, up to 7 days
Description: The stability of the complexes in DMSO-d6, the solvent used to prepare stock solutions for biological experiments, was evaluated by recording their UV–vis absorptions and ^1H-NMR spectra over time.
UV–vis absorption spectra of 1-Me,Me were recorded in DMSO for 5 h and then after 24 h and 7 days (Figure 5). […] In fact, the λmax experienced a blue shift from 278 to 269 nm, giving rise to an isosbestic point at 275 nm. In addition, a decrease in the absorbance of the shoulder at 300 nm is observed, together with an absorbance increase in the shoulder at 260 nm. […] It is highly probable that a slow release of ethene and dmphen can occur. This would lead to the formation of the square planar species of type 4-R,R’, as reported in Scheme 3.
In all cases, no cleavage of the Pt–carbene bond was detected. Figure 6 reports the ^1H NMR spectra of 1-Me,Oct after dissolution, 1.5, 5, and 24 h.
The stability of the 1-R,R’ complexes in DMSO was studied by dissolving 5 mg of each complex in 250 μL of DMSO-d6 and then diluting 200 μL of this solution with 300 μL of DMSO-d6. The stability of the 1-R,R’ complexes in aqueous solvents was studied by dissolving 5 mg of each complex in 250 μL of DMSO-d6 and then diluting 50 μL of this solution with 500 μL of D2O. The ^1H-NMR spectra of the resulting solutions were recorded over time. […]

[4] = Octanol/water partition coefficient, shake-flask method; assay type: physicochemical; settings: n-octanol/water, UV-vis
Description: The partition coefficients in octanol/water (log Po/w) were measured using the shake-flask method, by calculating the equilibrium concentrations through UV spectra (Table 1).
Partition coefficients for the platinum complexes were determined in triplicate in an n-octanol/water system, with different ratios (1:1, 1:2, 2:1). Each complex was dissolved in n-octanol at the concentrations 16.7, 12.5, or 10 μM and subsequently, an appropriate volume of water was added. The mixtures were shaken mechanically for 1 h to ensure the distribution between the two solvent phases. The samples were then centrifuged (13,000 rpm, 10 min). Afterwards, the platinum concentration was determined in the octanol phases by UV–vis spectrophotometry, after collecting a calibration line for each complex. Results are expressed as the logarithm of the partition coefficient of octanol/water (log Po/w), which is the logarithm of the concentration of platinum in the n-octanol divided by its concentration in the aqueous layer.

[5] = target: T1, hen egg white lysozyme (HEWL) (Gallus gallus, UniProt P00698); assay: X-ray structure of adducts with HEWL; assay type: binding
T1 construct: model protein hen egg white lysozyme (HEWL); purchased Merck KGaA (Darmstadt, Germany); host or cells: hen egg white (natural source, by the protein's name)
Description: To obtain information on the reactivity of 1-Me,Me with proteins, the X-ray structure of the adducts that the Pt compound forms with HEWL was solved.
The structures were obtained using crystals grown in 20% ethylene glycol, 0.1 M sodium acetate buffer at pH 4.0, and 0.6 M sodium nitrate (Structure A, Figure 8A) and in 2.0 M sodium formate and 0.1 M Hepes at pH 7.5 (Structure B, Figure 8B), refined at 1.25 and 1.33 Å resolutions, respectively (Table S2).
HEWL crystals were grown using the hanging drop vapour diffusion method and the following reservoirs: • (a) 20% ethylene glycol, 0.10 M sodium acetate at pH 4.0, and 0.60 M sodium nitrate • (b) 2.0 M sodium formate and 0.1 M HEPES at pH 7.5.
The crystals of the protein adduct with 1-Me,Me were obtained by the soaking procedure. The HEWL crystals were soaked in a solution consisting of 83% reservoir, 17% DMSO, and 3.3 mM 1-Me,Me.
The structures of the Pt–HEWL adducts were solved by the molecular replacement method, using the HEWL coordinates deposited in the PDB under the accession code 193L [40] as a model. Refinements were carried out with a CCP4 REFMAC5 [46], and the model building, adjustments, and inspection of the electron density maps was manually carried out using WinCoot.
The Pt binding sites were unambiguously identified by comparing 2Fo–Fc, residual Fo–Fc, and anomalous difference electron density maps. […]

Calf thymus DNA = assay: Ethidium bromide displacement DNA binding assay; settings: 0.05 M ammonium acetate pH 7.5, titration with complex
Source text: The interaction of Pt-based drugs with biological macromolecules deeply affects their biological activity. DNA represents a target for this kind of metallodrug, while proteins are considered both as carriers and targets. To obtain information on the reactivity of the synthesised Pt compounds with DNA, fluorescence intercalation displacement assays have been performed using ethidium bromide (EB) as the DNA intercalator. When bound to DNA, EB has an emission fluorescence of significant intensity. On the other hand, when it is displaced by a competitive DNA-binding molecule, it undergoes quenching by water molecules. Thus, if a molecule binds DNA by displacing EB, a significant reduction in the fluorescence intensity of the EB-DNA complex will be observed.
The ethidium bromide (EB) displacement assay was performed on a HORIBA FluoroMax-4 spectrofluorometer equipped with a thermostat bath. Calf thymus DNA was incubated with EB in 0.05 M of ammonium acetate at pH 7.5, at a DNA:EB molar ratio of 1:5 for 30 min in the dark at room temperature. Then, the fluorescence quenching of this complex was evaluated by adding to it increasing amounts of Pt compounds dissolved in DMSO (20 mM). Samples were equilibrated for 5 min before collecting each spectrum. […]

Platinum(1+), (2,9-dimethyl-1,10-phenanthroline- N1,N10)(η2-ethene)methyl[1,3-dihydro-1,3-dimethyl-4-[1-[2,3,4,6-tetrakis-O-(acetyl)-β-D-glucopyranosyl]-1H-1,2,3-triazol-4-yl]-2H-imidazol-2-ylidene], 1,1,1-trifluoromethanesulfonate [1-Me,Me]
IC50 ([1]; 48 h incubation, MTT): 9.8 ± 0.3 µM | SI (selectivity index) ([1]; ratio IC50 BALB-c/3T3 / IC50 SVT2): 2.65 | IC50 ([2]; 48 h incubation, MTT): 20 ± 2 µM | SI (selectivity index) ([2]; ratio IC50 HaCaT / IC50 A431): 0.42 | stability, UV-vis spectra over time [3]: poor stability | Log Po/w [4]: 0.42 | Pt binding sites on HEWL ([5]; Structure A: 20% ethylene glycol, 0.1 M sodium acetate pH 4.0, 0.6 M sodium nitrate): two Pt binding sites were observed | Pt binding sites on HEWL ([5]; Structure B: 2.0 M sodium formate, 0.1 M Hepes pH 7.5): a single Pt binding site was observed | fluorescence intensity of EB-DNA complex (Calf thymus DNA): significant reduction in fluorescence intensity
